Measured values: ChEMBL document CHEMBL1144506, “Fujita-Ban QSAR analysis and CoMFA study of quinoline antagonists of immunostimulatory CpG-oligodeoxynucleotides” (Bioorg Med Chem, 2007)
Values joined by “and” are separate entries in the source; they are usually repeats but may differ in a detail not shown here. Equal values may be shown once.

Test system: WEHI
Experiment: Inhibition of CpG-oligodeoxynucleotides-induced immunostimulation in mouse WEHI 231 cells
Type: functional, cell-based
Conditions: for EC50: Mus musculus, WEHI

SMILES | EC50 [nM] | Log EC50 (wehi)
Cc1ccc(-c2cc(Nc3cc(CN4CCN(C)CC4)c(O)c(CN4CCN(C)CC4)c3)c3ccccc3n2)cc1 | 1.45 | 
Cc1ccc(-c2cc(NCCCN3CCOCC3)c3ccccc3n2)cc1 | 26.9 | 
Cc1ccc(-c2cc(NCCN(C)C)c3ccccc3n2)cc1 | 12.3 | 
Cc1ccc(-c2cc(Nc3ccc(O)cc3)c3ccccc3n2)cc1 | 151 | 
CN(C)CCNc1cc(-c2ccccc2N2CCN(C)CC2)nc2ccccc12 | 38.9 | 
CN(C)CCCCCCNc1cc(-c2ccc(N3CCN(C)CC3)cc2)nc2ccccc12 | 1.91 | 
CN(C)CCNc1cc(-c2ccccc2Cl)nc2ccccc12 | 162 | 
CCN(CC)CCNc1cc(-c2ccc(C)cc2)nc2ccccc12 | 18.6 | 
CN(C)CCCCCCNc1cc(-c2ccc3ccccc3c2)nc2ccccc12 | 5.89 | 
CN1CCN(Cc2ccc(-c3cc(N4CCN(C)CC4)c4ccccc4n3)cc2)CC1 | 58.9 | 
CN1CCN(c2ccc(-c3cc(NCCCCN4CCCC4)c4ccccc4n3)cc2)CC1 | 5.5 | 
CN1CCN(c2cc(-c3ccc4ccccc4c3)nc3ccc(-c4ccccc4)cc23)CC1 | 741 | 
CN(C)CCCNCc1cccc(-c2cc(NCCN3CCOCC3)c3ccccc3n2)c1 | 155 | 
CN(C)CCNc1cc(-c2ccc(F)cc2)nc2ccc(Cl)cc12 | 52.5 | 
Cc1cccc(-c2cc(NCCCN3CCN(C)CC3)c3ccccc3n2)c1 | 27.5 | 
CN(C)CCCNc1cc(-c2ccc(N3CCN(C)CC3)cc2)nc2ccccc12 | 1 | 
Fc1ccc(-c2cc(NCCCN3CCCC3)c3ccccc3n2)cc1 | 191 | 
CN(C)CCNc1cc(-c2ccc(CN3CCN(C)CC3)cc2)nc2ccccc12 | 7.08 | 
Cc1ccccc1-c1cc(NCCCN(C)C)c2ccccc2n1 | 186 | 
CN(C)CCNc1cc(-c2ccccc2N2CCN(C)CC2)nc2ccc(F)cc12 | 13.2 | 
CN1CCN(Cc2cc(Nc3cc(-c4ccc5ccccc5c4)nc4ccccc34)cc(CN3CCN(C)CC3)c2O)CC1 | 0.24 | 
CN(C)CCNc1cc(-c2ccc(C(F)(F)F)cc2)nc2ccc(F)cc12 | 407 | 
Oc1ccc(Nc2cc(-c3ccc4ccccc4c3)nc3ccccc23)cc1 | 316 | 
Cc1cccc(-c2cc(NCCCCN(C)C)c3ccccc3n2)c1 | 13.8 | 
CN(C)CCCNCc1cccc(-c2cc(NCCCN3CCN(C)CC3)c3ccccc3n2)c1 | 525 | 
CN(C)CCCCCNc1cc(-c2ccc(F)cc2)nc2ccccc12 | 15.5 | 

SMILES | EC50 [nM] | Log EC50 (wehi)
CN(C)CCCNc1cc(-c2ccc3ccccc3c2)nc2ccccc12 | 11 | 
CN(C)CCNc1cc(-c2ccc(C(F)(F)F)cc2)nc2ccccc12 | 155 | 
CN(C)CCCNc1cc(-c2ccc(N3CCCCC3)cc2)nc2ccccc12 | 15.8 | 
CN1CCN(CCNc2cc(-c3ccc(N4CCN(C)CC4)cc3)nc3ccccc23)CC1 | 1.51 | 
CN(C)CCNc1cc(-c2cccc(F)c2)nc2ccc(F)cc12 | 282 | 
CN1CCCC1CCNc1cc(-c2ccccc2F)nc2ccccc12 (stereo not drawn) | 204 | 
CN(C)CCNc1cc(-c2ccc3ccccc3c2)nc2ccc(-c3ccccc3)cc12 | 6.46 | 
CN(C)CCCCNc1cc(-c2ccccc2F)nc2ccccc12 | 107 | 
CN1CCN(c2ccc(-c3cc(NCCN4CCOCC4)c4ccccc4n3)cc2)CC1 | 3.31 | 
CN1CCN(Cc2ccc(-c3cc(NCCN4CCCC4)c4ccccc4n3)cc2)CC1 | 3.24 | 
CN1CCN(c2ccc(-c3cc(N4CCN(C)CC4)c4ccccc4n3)cc2)CC1 | 2.69 | 
CN(C)CCCCCCNc1cc(-c2ccc(F)cc2)nc2ccccc12 | 20.4 | 
CN(C)CCCNc1cc(-c2cccc(CNCCCN3CCOCC3)c2)nc2ccccc12 | 52.5 | 
c1ccc2cc(-c3cc(NCCCN4CCOCC4)c4ccccc4n3)ccc2c1 | 3.55 | 
CN(C)CCNc1cc(-c2ccc(N3CCN(C)CC3)cc2)nc2ccc(Cl)cc12 | 1.45 | 
Cc1ccc(-c2cc(Nc3cc(CN4CCCC4)c(O)c(CN4CCCC4)c3)c3ccccc3n2)cc1 | 1.78 | 
CN(C)CCNc1cc(-c2ccccc2F)nc2ccc(F)cc12 | 417 | 
CN1CCN(c2ccc(-c3cc(NCCCN4CCOCC4)c4ccccc4n3)cc2)CC1 | 2.19 | 
Cc1ccc(-c2cc(NCCCN3CCCC3)c3ccccc3n2)cc1 | 105 | 
Cc1ccc(-c2cc(NCCCN3CCN(C)CC3)c3ccccc3n2)cc1 | 13.8 | 
c1cc(CNCCN2CCOCC2)cc(-c2cc(NCCCN3CCCC3)c3ccccc3n2)c1 | 537 | 
CN1CCN(Cc2cccc(-c3cc(NCCC4CCCN4C)c4ccccc4n3)c2)CC1 (stereo not drawn) | 7.76 | 
CN1CCN(CCCNc2cc(-c3ccc(CN4CCN(C)CC4)cc3)nc3ccccc23)CC1 | 6.76 | 
COc1ccc(-c2cc(NCCN(C)C)c3ccccc3n2)cc1F | 35.5 | 
CN1CCN(Cc2cc(Nc3cc(-c4ccc(F)cc4)nc4ccccc34)cc(CN3CCN(C)CC3)c2O)CC1 | 1.74 | 
CCN1CCCC1CNc1cc(-c2ccc(C)cc2)nc2ccccc12 (stereo not drawn) | 21.9 | 

SMILES | EC50 [nM] | Log EC50 (wehi)
COc1ccc(-c2cc(NCCN(C)C)c3cc(F)ccc3n2)cc1F | 79.4 | 
CN1CCN(Cc2cccc(-c3cc(NCCCN4CCCC4)c4ccccc4n3)c2)CC1 | 120 | 
CN1CCN(c2ccc(-c3cc(NCCN4CCCC4)c4ccccc4n3)cc2)CC1 | 2.4 | 
CN(C)CCNc1cc(-c2cccc(F)c2)nc2cc(C(F)(F)F)ccc12 | 550 | 
CN(C)CCNc1cc(-c2ccc(F)cc2)nc2ccccc12 | 51.3 | 
CN(C)CCCNc1cc(-c2ccc(CN3CCN(C)CC3)cc2)nc2ccccc12 | 9.12 | 
Oc1c(CN2CCCC2)cc(Nc2cc(-c3ccc4ccccc4c3)nc3ccccc23)cc1CN1CCCC1 | 1.15 | 
CCN1CCCC1CNc1cc(-c2cccc(C)c2)nc2ccccc12 (stereo not drawn) | 21.9 | 
CN(C)CCCNc1cc(-c2cccc(CN3CCN(C)CC3)c2)nc2ccccc12 | 3.98 | 
Fc1ccc(-c2cc(NCCCN3CCOCC3)c3ccccc3n2)cc1 | 67.6 | 
CN(C)CCCCCNc1cc(-c2ccc(N3CCN(C)CC3)cc2)nc2ccccc12 | 1.45 | 
Cc1cccc(-c2cc(NCCN3CCOCC3)c3ccccc3n2)c1 | 646 | 
CN(C)CCNc1cc(-c2ccccc2Cl)nc2ccc(Cl)cc12 | 468 | 
CN(C)CCNc1cc(-c2ccc(N3CCN(C)CC3)cc2)nc2ccccc12 | 0.759 | 
c1ccc2cc(-c3cc(NCCCN4CCCC4)c4ccccc4n3)ccc2c1 | 13.5 | 
Fc1ccc(-c2cc(NCCN3CCOCC3)c3ccccc3n2)cc1 | 417 | 
c1cc(CNCCCN2CCOCC2)cc(-c2cc(NCCN3CCOCC3)c3ccccc3n2)c1 | 12 | 
CN(C)CCCCNc1cc(-c2ccc(F)cc2)nc2ccccc12 |  | -8.26 and -7.76
Fc1ccc(-c2cc(NCCN3CCCC3)c3ccccc3n2)cc1 | 24 | 
CN(C)CCCCNc1cc(-c2ccc(N3CCN(C)CC3)cc2)nc2ccccc12 | 1.23 | 
CN(C)CCCCNc1cc(-c2ccc(N3CCCCC3)cc2)nc2ccccc12 | 46.8 | 
CN(C)CCNc1cc(-c2ccc3ccccc3c2)nc2ccccc12 | 9.12 | 
CN1CCN(c2ccccc2-c2cc(N3CCN(C)CC3)c3ccccc3n2)CC1 | 132 | 
CN1CCN(Cc2cccc(-c3cc(N4CCN(C)CC4)c4ccccc4n3)c2)CC1 | 100 | 
CCN1CCCC1CNc1cc(-c2ccc(F)cc2)nc2ccccc12 (stereo not drawn) | 17 | 
Cc1ccccc1-c1cc(NCCCN2CCOCC2)c2ccccc2n1 | 646 | 

SMILES | EC50 [nM] | Log EC50 (wehi)
Cc1cccc(-c2cc(NCCCN(C)C)c3ccccc3n2)c1 | 13.2 | 
CN(C)CCNc1ccccc1-c1cc(NCCN(C)C)c2ccccc2n1 | 6.46 | 
CN1CCN(CCNc2cc(-c3ccc(F)cc3)nc3ccccc23)CC1 | 18.6 | 
CN(C)CCCNc1cc(-c2ccccc2F)nc2ccccc12 | 107 | 
CN(C)CCNc1cc(-c2ccc(N3CCCCC3)cc2)nc2ccccc12 | 5.37 | 
CN1CCN(c2ccc(-c3cc(NCCC4CCCN4C)c4ccccc4n3)cc2)CC1 (stereo not drawn) | 2 | 
COc1ccc(C2C=C(NCCN(C)C)c3cc(F)ccc3N2)c(F)c1 (stereo not drawn) | 141 | 
CCN1CCCC1CNc1cc(-c2ccc3ccccc3c2)nc2ccccc12 (stereo not drawn) | 5.37 | 
CN(C)CCCCNc1cc(-c2ccccc2NCCN(C)C)nc2ccccc12 | 5.89 | 
CN1CCCC1CCNc1cc(-c2ccc3ccccc3c2)nc2ccccc12 (stereo not drawn) | 2.04 | 
Cc1cccc(-c2cc(NCCCN3CCOCC3)c3ccccc3n2)c1 | 50.1 | 
CN(C)CCNc1cc(-c2ccc(F)cc2)nc2cc(C(F)(F)F)ccc12 | 490 | 
Cc1ccc(-c2cc(NCCCN(C)C)c3ccccc3n2)cc1 | 11.5 | 
CCN(CC)CCNc1cc(-c2cccc(C)c2)nc2ccccc12 | 22.4 | 
Cc1cccc(-c2cc(NCCCN3CCCC3)c3ccccc3n2)c1 | 195 | 
CN(C)CCCCNc1cc(-c2ccc3ccccc3c2)nc2ccccc12 | 3.72 | 
CN1CCN(CCCCNc2cc(-c3ccc(N4CCN(C)CC4)cc3)nc3ccccc23)CC1 | 4.9 | 
Cc1cccc(-c2cc(NCCC3CCCN3C)c3ccccc3n2)c1 (stereo not drawn) | 14.1 | 
Cc1ccc(-c2cc(NCCN3CCOCC3)c3ccccc3n2)cc1 | 490 | 
Cc1cccc(-c2cc(NCCN(C)C)c3ccccc3n2)c1 | 72.4 | 
CN1CCN(CCCCNc2cc(-c3ccc(F)cc3)nc3ccccc23)CC1 | 15.8 | 
COc1ccc(-c2cc(NCCN(C)C)c3ccc(C(F)(F)F)cc3n2)cc1F | 407 | 
CN(C)CCCNc1cc(-c2cccc(CNCCN3CCOCC3)c2)nc2ccccc12 | 20.4 | 
Fc1ccc(-c2cc(NCCCCN3CCCC3)c3ccccc3n2)cc1 | 20.9 | 
CN1CCCC1CCNc1cc(-c2ccc(F)cc2)nc2ccccc12 (stereo not drawn) | 13.2 | 
